# Reference: paper PMC11540889, “In Vitro Cytotoxicity of Fluorinated Quaternary Ammonium Salts in Colorectal Cancer Cells and In Silico Pharmacology” (Advances in Pharmacological and Pharmaceutical Sciences, 2024)
# What was measured:
# [1] = test system: CRC cell lines SW48, SW620, and SW948; experiment: MTT cytotoxicity across CRC cell lines (pooled statements, selectivity between lines); format: cell-based; conditions: for Index of selectivity SW48 vs. SW620: IS = CC50 SW48 ÷ CC50 SW620; for Index of selectivity SW948 vs. SW48: IS = CC50 SW948 ÷ CC50 SW48; for Index of selectivity SW948 vs. SW620: IS = CC50 SW948 ÷ CC50 SW620
# Description: (§1) The compounds were solubilized in dimethyl sulfoxide (DMSO, Fischer Chemical, NJ, USA) at 50,000 μg/mL and stored at −20°C until use. From the stock solution, six serial 1:2 double dilutions of each compound were prepared to start with concentrations of 100, 50, 25, 12.5, 6.25, and 3.125 μg/mL, respectively. 5-FU, one of the conventional drugs to treat CRC [34], was used as an antitumor compound control at concentrations ranging between 800 and 0.625 μM.
# (§2) SW948 (Dukes' Type C, Grade III, premetastatic colorectal adenocarcinoma—CCL-237), SW48 (Dukes' Type C, Grade IV, noninvasive colorectal adenocarcinoma—CCL231), and SW620 (Dukes' Type C, Grade IV invasive colorectal adenocarcinoma—CCL227) (American Type Culture Collection Manassas, VA, USA) were maintained in standard conditions at 37°C, without a CO2 atmosphere. PBMCs and MCRT were used as nontumoral control cells. PBMCs were obtained by healthy donors, separated using Histopaque-1077 (Sigma-Aldrich) and cultured in RPMI-1640 medium (Sigma-Aldrich) supplemented with 10% SFB and 1% penicillin/streptomycin [46]. In turn, MCRT were obtained from healthy BALB/c mice; for this, mice were euthanized with CO2 after previous sedation, the colorectal tissue removed, cleaned up, and cut into 2 × 2 mm pieces, suspended in supplemented DMEM, and used immediately after collection. […] Moreover, the inclusion of PBMC also served to assess the systemic toxicity of FQAS.
# (§3) The cytotoxic activity of synthesized FQASs and QASs was studied by measuring cell viability/mortality, determined with the MTT (3-(4,5-dimethylthiazol-2-yl)-2,5-diphenyl tetrazole bromide) method (VWR Chemicals and Reagents Avantor), upon exposure of each cell line to six serial dilutions of the different compounds independently. Unexposed cells were included as viability controls, and cells exposed to 5-FU were included as cytotoxicity controls. Briefly, cells were adjusted to 200,000 cells/mL in the corresponding supplemented culture medium, and 100 μL (20,000 cells/well) were dispensed into each 96-well cell culture plate (Nunc, Thermo Fisher Scientific). Twelve hours after seeding the monolayer, 100 μL dilution of each compound was added to each well; the plates containing CRC were incubated at 37°C in the absence of CO2, while plates with PBMCs and MCRT were incubated at 37°C and 5% CO2 atmosphere. For MCRT, each piece was placed into each well of a 96-well plate and exposed to each dilution of the FQASs and QASs. After 48 h of incubation, 30 μL/well of MTT (5 mg/mL) was added, and plates were left at 37°C for 3 h, protected from light. After this time, 100 μL/well of DMSO was added to solubilize the formazan crystals formed. Plates were read at 570 nm on a Varioskan plate reader (Thermo Fisher), and nonspecific absorbance was corrected by subtracting the optical densities (OD) of the blank solutions corresponding to the supplemented culture media (RPMI 1640, DMEM, or L-15 media) and 0.5% DMSO. Each concentration of the FQASs, QASs, and controls was evaluated in duplicate in three independent experiments.
# (§4) The percentages of viability (equation (1)) and mortality (equation (2)) were calculated with the net OD:(1) % viability=OD treated cell÷nontreated cells×100, (2) % mortality=100−% viability.
# The %mortality data for each compound concentration was recorded, and the median cytotoxic concentration (CC50), corresponding to the concentration at which 50% of cell death occurs, was calculated using GraphPad Prism 8 software (GraphPad, Software, Inc., La Jolla, CA, USA). […]
# [2] = test system: SW948 (Dukes' Type C, Grade III, premetastatic colorectal adenocarcinoma); experiment: MTT cytotoxicity, SW948 cells; conditions: for CC50: SW948 cells, MTT, 48 h, mean ± SD; for Index of selectivity MCRT / SW948: IS = CC50 MCRT ÷ CC50 SW948; for Index of selectivity PBMC / SW948: IS = CC50 PBMC ÷ CC50 SW948
# Description: as §1, §2, §3, §4
# (§5) The %mortality data for each compound concentration was recorded, and the median cytotoxic concentration (CC50), corresponding to the concentration at which 50% of cell death occurs, was calculated using GraphPad Prism 8 software (GraphPad, Software, Inc., La Jolla, CA, USA). […] Lastly, the index of selectivity (IS) was calculated by dividing the CC50 value obtained for control cells (MCRT and PBMCs) by the CC50 value obtained for each CRC cell phenotype using the formula: IS = CC50 (MCRT or PBMC) ÷ CC50 (SW948, SW48 or SW620).
# [3] = Ex vivo MTT cytotoxicity, healthy murine colorectal tissue; format: cell-based, BALB/c mice; conditions: BALB/c, mouse, healthy murine colorectal tissue (MCRT) pieces, ex vivo, nontumoral control, MTT, 48 h, mean ± SD
# Description: as §1, §2, §3, §4, §5
# [4] = test system: SW48 (Dukes' Type C, Grade IV, noninvasive colorectal adenocarcinoma); experiment: MTT cytotoxicity, SW48 cells; conditions: for CC50: SW48 cells, MTT, 48 h, mean ± SD; for Index of selectivity MCRT / SW48: IS = CC50 MCRT ÷ CC50 SW48; for Index of selectivity PBMC / SW48: IS = CC50 PBMC ÷ CC50 SW48
# Description: as §1, §2, §3, §4, §5
# [5] = MTT cytotoxicity, peripheral blood mononuclear cells; format: cell-based; conditions: human, peripheral blood mononuclear cells (PBMC); PBMC, nontumoral control, MTT, 48 h, mean ± SD
# Description: as §1, §2, §3, §4, §5
# [6] = test system: SW620 (Dukes' Type C, Grade IV invasive colorectal adenocarcinoma); experiment: MTT cytotoxicity, SW620 cells; conditions: for CC50: Homo sapiens; for Index of selectivity MCRT / SW620: IS = CC50 MCRT ÷ CC50 SW620; for Index of selectivity PBMC / SW620: IS = CC50 PBMC ÷ CC50 SW620
# Description: as §1, §2, §3, §4, §5
Structure (SMILES),Index of selectivity SW48 vs. SW620 [1],Index of selectivity SW948 vs. SW48 [1],Index of selectivity SW948 vs. SW620 [1],"CC50 ([2]; Homo sapiens, SW948, 48 h) [µM]",Index of selectivity MCRT / SW948 [2],Index of selectivity PBMC / SW948 [2],CC50 at 48 h [3] [µM],"CC50 ([4]; Homo sapiens, SW48, 48 h) [µM]",Index of selectivity MCRT / SW48 [4],Index of selectivity PBMC / SW48 [4],CC50 at 48 h [5] [µM],CC50 ([6]; 48 h) [µM],Index of selectivity MCRT / SW620 [6],Index of selectivity PBMC / SW620 [6],cytotoxicity level (high/moderate/low) [2],cytotoxicity level (high/moderate/low) [4],cytotoxicity level (high/moderate/low) [6],CC50 [2] [µM],CC50 [4] [µM],CC50 ([6]; SW-620) [µM]
C[N+](C)(C)CCCC=C(c1ccc(C(F)(F)F)cc1)c1ccc(C(F)(F)F)cc1 [Compound 10],2.3,0.3,0.7,13.4 ± 3.9,8.9,3.8,119 ± 8.7,44 ± 6,2.7,1.2,51.4 ± 5.3,18.8 ± 4.7,6.4,2.7,–,–,–,–,–,–
C[N+](C)(CCl)CCCCC=C(c1ccc(C(F)(F)F)cc1)c1ccc(C(F)(F)F)cc1 [Compound 12],3.2,0.5,1.7,25 ± 4.8,4.4,1.6,111 ± 16.7,48 ± 5.1,2.3,0.8,40.5 ± 9.5,15.1 ± 1.5,7.3,2.7,High,Moderate,High,–,–,–
C[N+](C)(C)CCCC=C(c1cccc(C(F)(F)F)c1)c1cccc(C(F)(F)F)c1 [Compound 7],2.6,0.2,–,20 ± 0.8,6.2,2.3,123 ± 9.2,81.4 ± 9.4,1.5,0.57,46.3 ± 7.5,31.1 ± 0.2,4.0,1.5,–,–,–,–,–,–
C[N+](C)(CCl)CCCC=C(c1cccc(C(F)(F)F)c1)c1cccc(C(F)(F)F)c1 [Compound 5],2.1,0.8,1.8,24.5,2.8,0.8,121 ± 5.4,43.5,2.3,0.66,34.8 ± 6,24.5 ± 2.3,4.9,1.4,–,–,–,43.5 ± 4,52 ± 9.2,52
C[N+](C)(C)CCCCC=C(c1ccc(C(F)(F)F)cc1)c1ccc(C(F)(F)F)cc1 [Compound 14],1.3,2.6,3.4,49 ± 11.1,8.6,1.9,419 ± 15,16.3,22.7,5.0,93.2 ± 13.1,14.5 ± 2.9,28.9,6.4,–,–,–,–,18.5 ± 3.6,–
C[N+](C)(CI)CCCC=C(c1ccc(C(F)(F)F)cc1)c1ccc(C(F)(F)F)cc1 [Compound 9],1.2,0.5,0.6,20 ± 4.7,10.3,1.5,206 ± 19.4,40.2 ± 6,5.1,0.8,30.6 ± 2.1,32.2 ± 1,6.4,1.0,–,–,–,–,–,–
C[N+](C)(C)CCCC=C(c1cccc(F)c1)c1cccc(F)c1 [Compound 1],1.7,2.0,3.3,211 ± 7.4,1.0,0.1,212 ± 4,105 ± 12,2.0,0.3,29.8 ± 2.4,63.7 ± 15.3,3.3,0.5,–,–,–,–,–,–
